The record followed here is patent publication US10053462B2, “P2X7 modulators” (Jansssen Pharmaceutica NV, priority 2013, dated 2018).

This assay deals with P2X7 (Homo sapiens (Human), UniProt Q99572). Description: P2X7 antagonism in human peripheral blood mononuclear cells (PBMCs), IL-1β release. It counts as cell-based. The conditions noted are these: LPS 30 ng/ml + Bz-ATP 0.5 mM; for remaining activity at 10 µM: P2X7, Table 2 (additional runs), 10 μM compound, read-out: PBMC 10 μM (% control); for PBMC 10 μM (% control): Table 1, 10 μM compound. As to the method: P2X7 Antagonism in Human Peripheral Blood Mononuclear Cells (PBMCs) and Human Whole Blood.
Human blood was collected using a blood donor program. PBMCs were isolated from blood using a Ficoll density gradient technique. Briefly, blood was laid on Ficoll solution and centrifuged at RT for 20 minutes at 2000 rpm. The buffy layer (between red blood cells and plasma) was carefully collected by aspiration, washed with PBS and centrifuged again at 1500 rpm for 15 minutes. The resulting cell pellet was washed and plated on 96 well-plates for experiments. For the Human Whole Blood experiments, 150 μl of human blood was platted on 96 well-plates. Lipopolysaccharide (LPS) (30 ng/ml) was added to each well and incubated for 1 hour. Test compounds were then added and incubated for 30 minutes. The P2X7 agonist, 2′(3′)-O-(4-benzoylbenzoyl) adenosine 5′-triphosphate (Bz-ATP) was then added at a final concentration of 0.5 mM (PBMC) or 1 mM (blood). Cells were incubated for an additional 1.5 hours. At that point, supernatant was collected and stored for IL-1β assay using manufacturer's protocol for enzyme-linked immunosorbent assay (ELISA). Data was expressed as percent control, where control is defined as the difference in IL-1β release in LPS+Bz-ATP samples and LPS only samples. Data was plotted as response (% control) versus concentration to generate IC50 values. […] Data are analyzed and graphed on Graphpad Prism 5. For analysis, each concentration point is averaged from triplicate values and the averaged values are plotted on Graphpad Prism.

Chain of P2X7 (Q99572 whole entry): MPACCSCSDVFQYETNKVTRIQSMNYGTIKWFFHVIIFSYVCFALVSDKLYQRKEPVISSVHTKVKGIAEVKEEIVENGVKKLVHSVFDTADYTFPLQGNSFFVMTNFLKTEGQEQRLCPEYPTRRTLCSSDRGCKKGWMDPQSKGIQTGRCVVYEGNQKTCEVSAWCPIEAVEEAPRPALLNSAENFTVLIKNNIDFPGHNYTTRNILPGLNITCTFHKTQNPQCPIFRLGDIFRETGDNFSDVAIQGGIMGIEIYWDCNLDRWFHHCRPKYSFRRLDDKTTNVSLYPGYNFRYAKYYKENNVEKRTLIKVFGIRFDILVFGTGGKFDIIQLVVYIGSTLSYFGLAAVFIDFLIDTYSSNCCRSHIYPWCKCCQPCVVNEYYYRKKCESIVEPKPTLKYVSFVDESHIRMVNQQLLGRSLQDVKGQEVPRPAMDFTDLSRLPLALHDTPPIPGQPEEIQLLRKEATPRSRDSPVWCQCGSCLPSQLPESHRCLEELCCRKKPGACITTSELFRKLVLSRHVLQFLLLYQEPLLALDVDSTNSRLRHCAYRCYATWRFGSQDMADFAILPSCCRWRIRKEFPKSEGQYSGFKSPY

Turning to `O=C(c1cccc(C(F)(F)F)c1Cl)N1[C@@H]2CCC[C@H]1c1nnc(-c3cccnn3)n1C2` (stereo in doubt) [Example 195, (6R,10S)-11-{[2-Chloro-3-(trifluoromethyl)phenyl]carbonyl}-3-pyridazin-3-yl-5,6,7,8,9,10-hexahydro-6,10-epimino[1,2,4]triazolo[4,3-a]azocine], the remaining activity at 10 µM is 11.2%.

On to `O=C(c1cccc(C(F)(F)F)c1Cl)N1[C@@H]2CCC[C@H]1c1nnc(-c3cc(C(F)(F)F)ccn3)n1C2` (stereo in doubt) [Example 196, (6R,10S)-11-{[2-Chloro-3-(trifluoromethyl)phenyl]carbonyl}-3-[4-(trifluoromethyl)pyridin-2-yl]-5,6,7,8,9,10-hexahydro-6,10-epimino[1,2,4]triazolo[4,3-a]azocine], for which the remaining activity at 10 µM is -0.2%.

On to `O=C(c1cccc(C(F)(F)F)c1Cl)N1[C@@H]2CCC[C@H]1c1nnc(-c3ccncn3)n1C2` (stereo in doubt) [Example 197, (6R,10S)-11-{[2-Chloro-3-(trifluoromethyl)phenyl]carbonyl}-3-pyrimidin-4-yl-5,6,7,8,9,10-hexahydro-6,10-epimino[1,2,4]triazolo[4,3-a]azocine], for which the remaining activity at 10 µM came to 1.8%.

Take `O=C(c1ccnc(C(F)(F)F)c1F)N1[C@@H]2CCC[C@H]1c1nnc(-c3ccccn3)n1C2` (stereo in doubt) [Example 198, (6R,10S)-11-{[3-Fluoro-2-(trifluoromethyl)pyridin-4-yl]carbonyl}-3-pyridin-2-yl-5,6,7,8,9,10-hexahydro-6,10-epimino[1,2,4]triazolo[4,3-a]azocine]: the remaining activity at 10 µM is 4.1%.

For `O=C(c1ccnc(C(F)(F)F)c1Cl)N1[C@@H]2CCC[C@H]1c1nnc(-c3ccccn3)n1C2` (stereo in doubt) [Example 199, (6R,10S)-11-{[3-Chloro-2-(trifluoromethyl)pyridin-4-yl]carbonyl}-3-pyridin-2-yl-5,6,7,8,9,10-hexahydro-6,10-epimino[1,2,4]triazolo[4,3-a]azocine], the remaining activity at 10 µM is -3.2%.

On to `O=C(c1ccc(F)c(C(F)(F)F)c1Cl)N1[C@@H]2CCC[C@H]1c1nnc(-c3ccccn3)n1C2` (stereo in doubt) [Example 200, (6R,10S)-11-{[2-Chloro-4-fluoro-3-(trifluoromethyl)phenyl]carbonyl}-3-pyridin-2-yl-5,6,7,8,9,10-hexahydro-6,10-epimino[1,2,4]triazolo[4,3-a]azocine], for which the remaining activity at 10 µM amounted to 7.7%.

In the case of `Cc1c(C(=O)N2[C@@H]3CCC[C@H]2c2nnc(-c4ccccn4)n2C3)cccc1C(F)(F)F` (stereo in doubt) [Example 201, (6R,10S)-11-{[2-Methyl-3-(trifluoromethyl)phenyl]carbonyl}-3-pyridin-2-yl-5,6,7,8,9,10-hexahydro-6,10-epimino[1,2,4]triazolo[4,3-a]azocine], the remaining activity at 10 µM was -4%.

With `O=C(c1ccc(Cl)c(F)c1Cl)N1[C@@H]2CCC[C@H]1c1nnc(-c3ccccn3)n1C2` (stereo in doubt) [Example 202, (6R,10S)-11-[(2,4-Dichloro-3-fluorophenyl)carbonyl]-3-pyridin-2-yl-5,6,7,8,9,10-hexahydro-6,10-epimino[1,2,4]triazolo[4,3-a]azocine], the remaining activity at 10 µM is -2.3%.

In the case of `O=C(c1ccc(F)c(Cl)c1Cl)N1[C@@H]2CCC[C@H]1c1nnc(-c3ccccn3)n1C2` (stereo in doubt) [Example 203, (6R,10S)-11-[(2,3-Dichloro-4-fluorophenyl)carbonyl]-3-pyridin-2-yl-5,6,7,8,9,10-hexahydro-6,10-epimino[1,2,4]triazolo[4,3-a]azocine], the remaining activity at 10 µM is -5%.

As to `O=C(c1cccc(C(F)(F)F)c1Cl)N1[C@H]2CC[C@@H]1c1nnc(-c3ccccn3)n1C2` [Example 41, (6S,9R)-10-{[2-Chloro-3-(trifluoromethyl)phenyl]carbonyl}-3-pyridin-2-yl-6,7,8,9-tetrahydro-5H-6,9-epimino[1,2,4]triazolo[4,3-a]azepine], the remaining activity at 10 µM was -20% and the “PBMC 10 μM (% control)” value is −20.0 % control.

In the case of `O=C(c1cccc(C(F)(F)F)c1Cl)N1[C@H]2CC[C@@H]1c1nnc(-c3ncccn3)n1C2` [Example 46, (6S,9R)-10-{[2-Chloro-3-(trifluoromethyl)phenyl]carbonyl}-3-pyrimidin-2-yl-6,7,8,9-tetrahydro-5H-6,9-epimino[1,2,4]triazolo[4,3-a]azepine], the remaining activity at 10 µM was 10% and the “PBMC 10 μM (% control)” value was 10.0 % control.

Consider `Cc1c(C(=O)N2[C@H]3CC[C@@H]2c2nnc(-c4cscn4)n2C3)cccc1C(F)(F)F` [Example 53, (6S,9R)-10-{[2-Methyl-3-(trifluoromethyl)phenyl]carbonyl}-3-(1,3-thiazol-4-yl)-6,7,8,9-tetrahydro-5H-6,9-epimino[1,2,4]triazolo[4,3-a]azepine], for which the remaining activity at 10 µM came to 4% and the “PBMC 10 μM (% control)” value came out at 4.0 % control.

On to `Cc1ncsc1-c1nnc2n1C[C@@H]1CC[C@H]2N1C(=O)c1cccc(C(F)(F)F)c1Cl` [Example 59, (6S,9R)-10-{[2-Chloro-3-(trifluoromethyl)phenyl]carbonyl}-3-(4-methyl-1,3-thiazol-5-yl)-6,7,8,9-tetrahydro-5H-6,9-epimino[1,2,4]triazolo[4,3-a]azepine], for which the remaining activity at 10 µM is 0.6% and the “PBMC 10 μM (% control)” value turned out to be 0.6 % control.
